Data from ChEMBL document CHEMBL1201862, “PubChem BioAssay data set” (2004).
Active and inactive are the calls of the source.

Tests used:
[1] = molecular target: Glyceraldehyde-3-phosphate dehydrogenase (Homo sapiens, UniProt P04406)
[2] = molecular target: Heat shock cognate 71 kDa protein (Homo sapiens, UniProt P11142); assay: In Vitro Hsc70 Dose Response Fluorescence Polarization Assay. [Related pubchem assays: 1072 ]
[3] = molecular target: Heat shock 70 kDa protein 1A (Homo sapiens, UniProt P0DMV8); assay: Hsp70 inhibitors, SAR follow-up, biochemical, fluorescence polarization (AID 1072)
[4] = molecular target: Serine/threonine-protein phosphatase PP1-alpha catalytic subunit (Homo sapiens, UniProt P62136); assay: PP1 phosphatase inhibitors, dose response, biochemical, fluorescence (AID 2403);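 also: phosphatase turnover of OMFP into fluorescent 3-O-methylfluorescein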
[5] = molecular target: Serine/threonine-protein phosphatase (Homo sapiens, UniProt Q9BPW0); assay: Counterscreen for inhibitors of PP1: fluorescence-based biochemical high throughput dose response assay to identify inhibitors of Protein Phosphatase 5 (PP5). [Related pubchem assays: 2034 (Summary (PP5 inhibitors)), 1987 (PP5 inhibitors in singlate), 2235 (PP1 inhibitors in singlate)]
[6] = molecular target: Transitional endoplasmic reticulum ATPase (Homo sapiens, UniProt P55072, C522A); assay: C522A mutant p97 ATPase inhibitors, dose response, counter-screen for p97 inhibitor project, biochemical, luminescence (AID 1544)
[7] = molecular target: Transitional endoplasmic reticulum ATPase (Homo sapiens, UniProt P55072); assay: p97 ATPase inhibitors, dose response, biochemical (AID 1534)
[8] = molecular target: Induced myeloid leukemia cell differentiation protein Mcl-1 (Homo sapiens, UniProt Q07820); assay type: functional
[9] = inhibitors of firefly luciferase expression or activity, dose response, H4 neuroglioma cells, luminescence (AID 1990); assay type: functional, cell-based
[10] = luciferase reporter signal reduction – luminescence, H4-C neuroglioblastoma cells, dose response (AID 2458); assay type: functional, cell-based;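 also: H4 neuroglioblastoma cells stably carrying a luciferase reporter gene fusion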
cells = assay type: functional, cell-based
[11] = Luminescence Cell-Based Dose Response HTS to Identify Inhibitors of 5'UTR Stem-Loop Driven Prion Protein mRNA Translation in H4 Neuroglioblastoma Cells. [Related pubchem assays: 1827 (Project Summary), 1813 (Primary HTS)]; assay type: functional
[12] = inhibitors of SNCA 5'UTR-driven reporter translation, confirmation, H4 neuroglioma cells, luminescence (AID 1988); assay type: functional, cell-based
[13] = inhibitors of SNCA 5'UTR-driven translation, confirmation, luminescence, H4 neuroglioblastoma cells, dose confirmation (AID 2454); assay type: functional, cell-based;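 also: H4 neuroglioblastoma cells carrying an alpha-synuclein 5'UTR luciferase reporter; potency for inhibition of the luciferase signal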
[14] = cytotoxicity in HEK-293T cells, dose response, cytotoxicity control for TCR NF-kB inhibitor project, luminescence, T-cell screen hits (AID 489026); assay type: functional, cell-based;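 also: cells exposed to compound about 14 hours before the viability readout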
[15] = Luminescence-based counterscreen assay for KLF5 inhibitors: dose response cell-based high throughput screening assay to identify cytotoxic compounds using the IEC-6 intestinal epithelial cell line. [Related pubchem assays: 1700 (Primary screen.), 1834 (Confirmation screen.), 1858 (Summary AID.), 1905 (Counterscreen.)]; assay type: functional
[16] = molecular target: T1, Sentrin-specific protease 8 (Homo sapiens, UniProt Q96LD8); assay: SENP8 protease inhibitors, SAR follow-up, biochemical, luminescence (AID 504501); assay type: functional
T1 sequence (Q96LD8 whole entry): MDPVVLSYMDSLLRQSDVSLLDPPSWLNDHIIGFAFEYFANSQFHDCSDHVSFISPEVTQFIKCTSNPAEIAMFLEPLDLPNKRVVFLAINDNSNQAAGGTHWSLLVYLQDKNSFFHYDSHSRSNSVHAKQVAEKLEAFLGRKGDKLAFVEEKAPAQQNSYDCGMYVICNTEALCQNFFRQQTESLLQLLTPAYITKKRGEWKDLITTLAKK

Caspase-3 = molecular target: T2, Caspase-3 (Homo sapiens, UniProt P42574); assay: SAR Analysis of small molecule inhibitors of Sentrin-specific proteases (SENPs) using a Caspase-3 Selectivity assay. [Related pubchem assays (depositor defined):AID2540, AID2599, AID434973, AID489001]; assay type: functional
T2 sequence (P42574 whole entry): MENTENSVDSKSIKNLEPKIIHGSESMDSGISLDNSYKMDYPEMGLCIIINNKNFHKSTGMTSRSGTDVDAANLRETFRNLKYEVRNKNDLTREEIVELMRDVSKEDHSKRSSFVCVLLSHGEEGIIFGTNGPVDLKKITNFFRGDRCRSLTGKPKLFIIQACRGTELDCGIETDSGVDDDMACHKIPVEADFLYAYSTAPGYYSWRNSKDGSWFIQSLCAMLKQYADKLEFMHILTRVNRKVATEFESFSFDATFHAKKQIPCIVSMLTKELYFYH

[17] = molecular target: T3, Sentrin-specific protease 6 (Homo sapiens, UniProt Q9GZR1); assay: SAR Analysis of small molecule inhibitors of Sentrin-specific protease 6 (SENP6) using a Luminescent assay. [Related pubchem assays (depositor defined):AID2582, AID2599]; assay type: functional
T3 sequence (Q9GZR1 whole entry): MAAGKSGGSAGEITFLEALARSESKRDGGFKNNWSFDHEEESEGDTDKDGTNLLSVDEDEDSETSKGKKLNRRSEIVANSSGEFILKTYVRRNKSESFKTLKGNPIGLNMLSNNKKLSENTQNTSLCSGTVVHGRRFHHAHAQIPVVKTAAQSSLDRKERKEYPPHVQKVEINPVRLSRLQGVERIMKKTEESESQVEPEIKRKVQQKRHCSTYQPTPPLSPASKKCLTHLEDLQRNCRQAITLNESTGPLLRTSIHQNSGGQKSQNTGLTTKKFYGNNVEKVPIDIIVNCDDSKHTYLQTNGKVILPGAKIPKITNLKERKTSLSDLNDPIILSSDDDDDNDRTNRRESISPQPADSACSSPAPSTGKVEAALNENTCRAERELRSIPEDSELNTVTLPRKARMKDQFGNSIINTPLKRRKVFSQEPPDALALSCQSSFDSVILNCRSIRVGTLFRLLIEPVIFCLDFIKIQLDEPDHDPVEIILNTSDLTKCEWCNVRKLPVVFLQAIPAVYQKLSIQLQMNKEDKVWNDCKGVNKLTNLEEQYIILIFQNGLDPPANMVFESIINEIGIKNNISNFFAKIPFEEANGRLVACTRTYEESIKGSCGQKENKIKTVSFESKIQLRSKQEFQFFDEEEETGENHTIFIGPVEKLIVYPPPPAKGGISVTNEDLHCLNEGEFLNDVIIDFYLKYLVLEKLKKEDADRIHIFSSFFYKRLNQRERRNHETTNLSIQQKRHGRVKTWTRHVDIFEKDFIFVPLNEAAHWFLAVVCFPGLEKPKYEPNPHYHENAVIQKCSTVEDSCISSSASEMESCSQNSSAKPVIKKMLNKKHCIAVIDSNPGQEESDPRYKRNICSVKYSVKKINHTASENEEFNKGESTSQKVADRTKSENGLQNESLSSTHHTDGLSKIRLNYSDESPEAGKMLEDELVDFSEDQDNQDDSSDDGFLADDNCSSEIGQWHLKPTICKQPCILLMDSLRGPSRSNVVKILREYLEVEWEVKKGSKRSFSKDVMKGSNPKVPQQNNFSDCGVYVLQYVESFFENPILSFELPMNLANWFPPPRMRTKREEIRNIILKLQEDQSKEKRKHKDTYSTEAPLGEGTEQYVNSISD

[18] = molecular target: T4, Sentrin-specific protease 7 (Homo sapiens, UniProt Q9BQF6); assay: SENP7 protease inhibitors, SAR follow-up, biochemical, luminescence (AID 504497); assay type: functional
T4 sequence (Q9BQF6 whole entry): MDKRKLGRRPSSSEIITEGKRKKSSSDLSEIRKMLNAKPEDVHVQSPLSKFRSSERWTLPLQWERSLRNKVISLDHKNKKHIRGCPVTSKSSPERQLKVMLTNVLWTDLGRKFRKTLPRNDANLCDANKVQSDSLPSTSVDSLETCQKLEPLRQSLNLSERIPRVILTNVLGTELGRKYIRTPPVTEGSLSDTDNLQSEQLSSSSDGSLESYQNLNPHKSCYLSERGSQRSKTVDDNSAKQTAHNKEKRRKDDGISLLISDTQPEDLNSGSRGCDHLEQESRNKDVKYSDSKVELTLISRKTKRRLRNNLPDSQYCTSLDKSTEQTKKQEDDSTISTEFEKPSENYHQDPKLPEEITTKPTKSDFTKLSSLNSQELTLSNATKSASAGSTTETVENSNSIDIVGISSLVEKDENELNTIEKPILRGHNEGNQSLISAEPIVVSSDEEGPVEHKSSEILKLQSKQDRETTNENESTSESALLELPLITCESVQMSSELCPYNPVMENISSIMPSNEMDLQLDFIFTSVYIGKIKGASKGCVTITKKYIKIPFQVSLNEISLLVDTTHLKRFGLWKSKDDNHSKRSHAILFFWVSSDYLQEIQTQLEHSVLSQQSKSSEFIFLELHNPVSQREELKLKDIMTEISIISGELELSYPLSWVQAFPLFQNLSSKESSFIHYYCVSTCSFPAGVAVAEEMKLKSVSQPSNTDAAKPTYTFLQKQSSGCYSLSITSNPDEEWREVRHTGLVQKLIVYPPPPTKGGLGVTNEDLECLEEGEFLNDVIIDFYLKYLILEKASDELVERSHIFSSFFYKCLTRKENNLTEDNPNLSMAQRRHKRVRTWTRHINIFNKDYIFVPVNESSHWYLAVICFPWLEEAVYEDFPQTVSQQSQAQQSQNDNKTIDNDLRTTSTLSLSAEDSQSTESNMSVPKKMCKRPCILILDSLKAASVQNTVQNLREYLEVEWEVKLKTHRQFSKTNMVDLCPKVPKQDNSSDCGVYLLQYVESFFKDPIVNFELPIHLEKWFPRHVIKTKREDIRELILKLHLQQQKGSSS

[19] = molecular target: T5, Rac GTPase-activating protein 1 (Homo sapiens, UniProt Q9H0H5); assay: MgcRacGAP GTPase-activating activity inhibitors, confirmation, biochemical, ADP Hunter fluorescence, primary and confirmatory (AID 624330); assay type: functional
T5 sequence (Q9H0H5 whole entry): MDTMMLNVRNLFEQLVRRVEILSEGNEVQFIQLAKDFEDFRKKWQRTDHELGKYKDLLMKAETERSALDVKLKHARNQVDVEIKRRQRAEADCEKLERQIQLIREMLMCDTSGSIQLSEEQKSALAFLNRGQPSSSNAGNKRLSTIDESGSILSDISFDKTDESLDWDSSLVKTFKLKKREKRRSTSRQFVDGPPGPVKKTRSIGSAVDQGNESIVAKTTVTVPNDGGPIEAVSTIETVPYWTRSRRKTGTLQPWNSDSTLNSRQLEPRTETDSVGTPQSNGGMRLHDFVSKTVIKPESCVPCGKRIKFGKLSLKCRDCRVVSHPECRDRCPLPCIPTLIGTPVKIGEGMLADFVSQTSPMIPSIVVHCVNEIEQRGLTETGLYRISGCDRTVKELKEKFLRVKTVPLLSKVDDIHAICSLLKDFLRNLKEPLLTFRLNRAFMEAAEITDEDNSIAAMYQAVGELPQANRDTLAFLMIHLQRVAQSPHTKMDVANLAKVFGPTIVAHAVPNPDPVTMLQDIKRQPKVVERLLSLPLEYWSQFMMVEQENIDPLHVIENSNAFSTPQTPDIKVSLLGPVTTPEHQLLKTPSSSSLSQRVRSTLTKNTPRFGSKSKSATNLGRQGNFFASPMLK

[20] = HepG2 cell cytotoxicity, dose response, cytotoxicity control, plate reader, cherry-pick, antagonist series (AID 743416); assay type: functional, cell-based
[21] = LGR2 antagonists, dose response, cell-based, HEK293, CRE-luciferase reporter, cherry pick, set 2 (AID 743343); assay type: functional;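 also: transfected cells were stimulated with diluted bursicon conditioned medium after compound addition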
[22] = MC4R antagonists, dose response, counter-screen for LGR2 antagonist project, cell-based, plate reader, cherry pick (AID 743444); assay type: functional;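 also: transfected HEK 293 cells stimulated with alpha-MSH peptide; potency of inhibitors of the alpha-MSH evoked signal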
Cytochrome P450 2D6 = Cytochrome P450 2D6 (Homo sapiens, UniProt P10635); assay: qHTS Assay for Inhibitors and Substrates of Cytochrome P450 2D6. [Related pubchem assays: 410 ]; assay type: ADME; settings: read-out: Potency
Cytochrome P450 1A2 = molecular target: T6, Cytochrome P450 1A2 (Homo sapiens, UniProt P05177);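 also: PubChem cytochrome P450 panel assay, CYP1A2 panel member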
T6 sequence (P05177 whole entry): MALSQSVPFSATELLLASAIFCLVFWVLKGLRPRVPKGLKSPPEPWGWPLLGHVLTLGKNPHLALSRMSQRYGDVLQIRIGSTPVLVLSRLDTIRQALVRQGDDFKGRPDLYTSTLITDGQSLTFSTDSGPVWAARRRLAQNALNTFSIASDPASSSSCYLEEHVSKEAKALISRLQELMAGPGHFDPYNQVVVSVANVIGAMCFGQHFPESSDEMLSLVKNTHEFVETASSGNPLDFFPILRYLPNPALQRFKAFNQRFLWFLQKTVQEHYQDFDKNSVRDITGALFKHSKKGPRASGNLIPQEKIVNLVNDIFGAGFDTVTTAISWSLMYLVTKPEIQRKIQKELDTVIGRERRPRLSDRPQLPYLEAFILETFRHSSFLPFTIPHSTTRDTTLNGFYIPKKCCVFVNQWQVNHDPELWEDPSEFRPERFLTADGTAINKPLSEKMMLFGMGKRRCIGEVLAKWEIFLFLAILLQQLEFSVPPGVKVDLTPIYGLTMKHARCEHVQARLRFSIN

Transitional endoplasmic reticulum ATPase (Homo sapiens, UniProt P55072, C522A), sequence (P55072 2-806 C522A limits assumed): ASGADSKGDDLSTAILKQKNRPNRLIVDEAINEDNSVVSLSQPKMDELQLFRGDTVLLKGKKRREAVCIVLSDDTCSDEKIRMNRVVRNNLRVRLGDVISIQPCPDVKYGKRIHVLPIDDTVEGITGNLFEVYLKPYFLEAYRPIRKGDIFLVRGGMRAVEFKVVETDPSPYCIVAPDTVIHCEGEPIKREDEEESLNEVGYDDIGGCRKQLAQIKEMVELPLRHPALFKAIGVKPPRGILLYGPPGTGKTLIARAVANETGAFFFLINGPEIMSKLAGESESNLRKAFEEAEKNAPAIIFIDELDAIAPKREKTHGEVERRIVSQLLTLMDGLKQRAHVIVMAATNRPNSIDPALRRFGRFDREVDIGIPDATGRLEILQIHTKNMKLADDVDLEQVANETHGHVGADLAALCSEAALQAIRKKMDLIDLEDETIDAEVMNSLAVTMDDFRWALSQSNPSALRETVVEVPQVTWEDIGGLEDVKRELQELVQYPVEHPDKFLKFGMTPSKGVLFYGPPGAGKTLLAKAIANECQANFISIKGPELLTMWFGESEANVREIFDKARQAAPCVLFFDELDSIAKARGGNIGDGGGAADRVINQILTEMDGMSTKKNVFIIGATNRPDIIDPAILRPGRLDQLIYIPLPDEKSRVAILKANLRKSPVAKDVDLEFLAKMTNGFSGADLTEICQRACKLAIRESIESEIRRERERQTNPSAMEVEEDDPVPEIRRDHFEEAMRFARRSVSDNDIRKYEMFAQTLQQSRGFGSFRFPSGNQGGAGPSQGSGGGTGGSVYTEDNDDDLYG
Serine/threonine-protein phosphatase, sequence (Q9BPW0 whole entry): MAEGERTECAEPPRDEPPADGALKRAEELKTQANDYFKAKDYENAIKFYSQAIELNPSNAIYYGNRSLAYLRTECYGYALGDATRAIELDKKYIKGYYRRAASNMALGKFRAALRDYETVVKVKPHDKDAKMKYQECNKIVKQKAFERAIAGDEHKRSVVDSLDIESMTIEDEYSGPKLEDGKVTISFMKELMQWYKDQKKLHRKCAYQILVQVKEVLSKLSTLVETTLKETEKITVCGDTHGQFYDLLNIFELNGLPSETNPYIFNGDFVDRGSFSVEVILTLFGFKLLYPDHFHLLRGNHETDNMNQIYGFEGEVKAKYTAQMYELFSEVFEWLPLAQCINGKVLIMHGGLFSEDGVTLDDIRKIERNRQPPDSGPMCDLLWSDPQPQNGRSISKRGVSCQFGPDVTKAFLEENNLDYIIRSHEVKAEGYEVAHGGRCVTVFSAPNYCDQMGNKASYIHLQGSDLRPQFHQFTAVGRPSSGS
Heat shock cognate 71 kDa protein, sequence (P11142 whole entry): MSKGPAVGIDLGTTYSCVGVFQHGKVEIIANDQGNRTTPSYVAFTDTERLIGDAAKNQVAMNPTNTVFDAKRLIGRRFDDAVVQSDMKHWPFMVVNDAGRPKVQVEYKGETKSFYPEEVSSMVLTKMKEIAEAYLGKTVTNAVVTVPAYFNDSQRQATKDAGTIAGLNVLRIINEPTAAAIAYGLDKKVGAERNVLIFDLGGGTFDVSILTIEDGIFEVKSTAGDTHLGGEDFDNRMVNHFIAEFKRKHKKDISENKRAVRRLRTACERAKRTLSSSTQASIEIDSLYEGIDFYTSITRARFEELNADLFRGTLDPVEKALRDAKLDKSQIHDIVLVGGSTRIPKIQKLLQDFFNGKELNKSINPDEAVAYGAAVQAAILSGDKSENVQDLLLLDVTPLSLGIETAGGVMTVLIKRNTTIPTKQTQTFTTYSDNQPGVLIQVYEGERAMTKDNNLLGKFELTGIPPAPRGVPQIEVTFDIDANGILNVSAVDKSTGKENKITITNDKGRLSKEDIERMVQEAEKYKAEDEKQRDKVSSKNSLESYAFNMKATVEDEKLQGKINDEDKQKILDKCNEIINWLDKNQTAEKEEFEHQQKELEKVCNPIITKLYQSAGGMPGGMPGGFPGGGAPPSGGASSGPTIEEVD
Serine/threonine-protein phosphatase PP1-alpha catalytic subunit, sequence (P62136 whole entry): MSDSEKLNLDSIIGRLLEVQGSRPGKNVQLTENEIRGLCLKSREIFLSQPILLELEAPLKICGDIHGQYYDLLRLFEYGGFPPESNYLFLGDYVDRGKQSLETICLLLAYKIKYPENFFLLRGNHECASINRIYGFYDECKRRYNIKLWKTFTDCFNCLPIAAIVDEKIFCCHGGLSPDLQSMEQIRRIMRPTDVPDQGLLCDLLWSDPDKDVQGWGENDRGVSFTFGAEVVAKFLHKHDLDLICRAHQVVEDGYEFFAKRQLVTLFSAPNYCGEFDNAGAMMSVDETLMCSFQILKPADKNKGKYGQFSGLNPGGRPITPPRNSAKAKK
Glyceraldehyde-3-phosphate dehydrogenase, sequence (P04406 whole entry): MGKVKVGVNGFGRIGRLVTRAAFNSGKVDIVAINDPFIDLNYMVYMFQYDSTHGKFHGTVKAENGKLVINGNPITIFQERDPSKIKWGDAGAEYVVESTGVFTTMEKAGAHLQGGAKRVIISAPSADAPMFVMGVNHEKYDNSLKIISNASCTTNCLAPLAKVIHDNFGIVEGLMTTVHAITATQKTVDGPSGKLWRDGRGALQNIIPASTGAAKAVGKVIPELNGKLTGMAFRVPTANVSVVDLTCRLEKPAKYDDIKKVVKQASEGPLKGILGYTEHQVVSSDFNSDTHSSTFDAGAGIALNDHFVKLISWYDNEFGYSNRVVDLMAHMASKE
Transitional endoplasmic reticulum ATPase (Homo sapiens, UniProt P55072), sequence (P55072 whole entry): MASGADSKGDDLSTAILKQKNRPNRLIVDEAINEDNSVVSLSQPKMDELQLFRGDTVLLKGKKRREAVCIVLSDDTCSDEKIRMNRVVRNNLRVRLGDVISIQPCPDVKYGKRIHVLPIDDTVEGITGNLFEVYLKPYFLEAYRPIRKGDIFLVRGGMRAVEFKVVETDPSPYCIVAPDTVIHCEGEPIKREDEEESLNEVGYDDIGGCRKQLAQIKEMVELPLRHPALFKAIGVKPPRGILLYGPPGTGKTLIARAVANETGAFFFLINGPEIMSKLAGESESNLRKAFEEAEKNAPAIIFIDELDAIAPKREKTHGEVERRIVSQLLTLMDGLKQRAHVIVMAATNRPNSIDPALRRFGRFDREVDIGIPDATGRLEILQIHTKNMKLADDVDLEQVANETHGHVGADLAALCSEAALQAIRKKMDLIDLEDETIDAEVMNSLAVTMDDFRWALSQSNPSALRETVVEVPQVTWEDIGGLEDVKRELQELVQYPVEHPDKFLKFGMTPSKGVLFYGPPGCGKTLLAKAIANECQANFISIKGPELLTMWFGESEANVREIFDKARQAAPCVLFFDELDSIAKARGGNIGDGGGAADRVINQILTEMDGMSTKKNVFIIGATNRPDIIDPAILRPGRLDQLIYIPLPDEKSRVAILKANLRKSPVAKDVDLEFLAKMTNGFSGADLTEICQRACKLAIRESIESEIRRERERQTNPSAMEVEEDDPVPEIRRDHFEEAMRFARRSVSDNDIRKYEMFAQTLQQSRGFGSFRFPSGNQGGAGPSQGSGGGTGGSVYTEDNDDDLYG
Heat shock 70 kDa protein 1A, sequence (P0DMV8 whole entry): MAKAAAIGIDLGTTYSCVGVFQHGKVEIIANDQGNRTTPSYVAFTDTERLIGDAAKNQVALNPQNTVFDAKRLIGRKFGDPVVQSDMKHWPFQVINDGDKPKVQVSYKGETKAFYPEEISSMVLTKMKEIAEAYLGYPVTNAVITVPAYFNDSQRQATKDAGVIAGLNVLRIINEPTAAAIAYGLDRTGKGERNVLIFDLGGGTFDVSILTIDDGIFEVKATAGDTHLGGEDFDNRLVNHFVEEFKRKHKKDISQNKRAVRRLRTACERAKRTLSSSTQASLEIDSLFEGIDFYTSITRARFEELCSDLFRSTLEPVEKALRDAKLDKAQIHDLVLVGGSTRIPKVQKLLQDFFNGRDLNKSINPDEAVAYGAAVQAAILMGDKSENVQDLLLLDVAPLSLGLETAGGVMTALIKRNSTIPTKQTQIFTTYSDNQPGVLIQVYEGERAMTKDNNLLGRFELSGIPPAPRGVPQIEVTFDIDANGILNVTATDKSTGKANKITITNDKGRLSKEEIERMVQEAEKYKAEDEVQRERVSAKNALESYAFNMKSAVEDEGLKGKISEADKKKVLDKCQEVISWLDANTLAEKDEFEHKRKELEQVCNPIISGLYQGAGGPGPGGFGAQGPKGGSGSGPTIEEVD
Cytochrome P450 2D6, sequence (P10635 whole entry): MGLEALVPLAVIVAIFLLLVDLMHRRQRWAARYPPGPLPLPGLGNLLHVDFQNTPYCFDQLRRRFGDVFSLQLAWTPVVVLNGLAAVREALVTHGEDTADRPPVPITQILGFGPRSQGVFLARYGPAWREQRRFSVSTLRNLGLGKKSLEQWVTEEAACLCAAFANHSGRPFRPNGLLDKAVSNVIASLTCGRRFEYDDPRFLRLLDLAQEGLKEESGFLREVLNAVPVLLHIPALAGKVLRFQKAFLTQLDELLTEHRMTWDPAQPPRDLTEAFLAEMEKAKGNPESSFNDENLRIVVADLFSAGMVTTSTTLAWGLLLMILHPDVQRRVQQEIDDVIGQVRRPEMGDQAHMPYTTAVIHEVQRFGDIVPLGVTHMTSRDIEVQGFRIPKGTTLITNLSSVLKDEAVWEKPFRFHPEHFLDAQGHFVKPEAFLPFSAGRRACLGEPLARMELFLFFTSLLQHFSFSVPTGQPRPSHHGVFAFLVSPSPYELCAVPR
Induced myeloid leukemia cell differentiation protein Mcl-1, sequence (Q07820 whole entry): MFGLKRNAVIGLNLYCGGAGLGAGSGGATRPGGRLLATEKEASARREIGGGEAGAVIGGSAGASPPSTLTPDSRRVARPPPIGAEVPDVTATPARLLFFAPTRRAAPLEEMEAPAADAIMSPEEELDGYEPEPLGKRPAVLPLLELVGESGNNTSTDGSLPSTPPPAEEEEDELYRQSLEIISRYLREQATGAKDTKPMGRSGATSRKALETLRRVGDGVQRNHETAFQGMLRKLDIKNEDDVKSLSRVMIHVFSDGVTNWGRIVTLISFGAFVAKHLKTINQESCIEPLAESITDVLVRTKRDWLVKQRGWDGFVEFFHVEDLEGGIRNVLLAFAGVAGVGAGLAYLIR

COc1ccc(NC(=O)C(=O)O)cc1
IC50 [1]: > 100 µM (not active)
IC50 [2]: > 100 µM (not active)
IC50 [3]: > 100 µM (not active)

COc1cnc(-c2ccccn2)nc1Oc1cccc(C(F)(F)F)c1
IC50 [4]: 7.79 µM (active)
IC50 [5]: > 67 µM (not active)

Cc1cc2c(C(C)C)c(O)c(O)c(C=O)c2c(O)c1-c1c(C)cc2c(C(C)C)c(O)c(O)c(C=O)c2c1O
IC50 [6]: 15.5 µM (not active)
IC50 [7]: 5.39 µM (active)
IC50 [8]: 1.36 µM (active)

CCOc1cccc(-c2nnc3n2N=C(c2cc(OC)ccc2OC)CS3)c1
EC50 [9]: 10.5 µM (active)
EC50 [10]: > 12 µM (not active)
EC50 (cells): > 12 µM (not active)
EC50 [11]: 13.1 µM (active)
EC50 [12]: < 0.1 µM (active)
EC50 [13]: 9.53 µM (active)
IC50 [14]: > 80 µM (inactive)

O=C(O)c1ccc(N/N=C/c2c[nH]c3ccccc23)cc1
IC50 [15]: > 39.8 µM (not active)
IC50 [16]: 0.794 µM (active)
IC50 (Caspase-3): 0.906 µM (active)
IC50 [17]: 0.869 µM (active)
IC50 [18]: 0.985 µM (active)
IC50 [19]: 47.7 µM (active)
AC50 [20]: > 52 µM (inactive)
AC50 [21]: 2.15 µM (active)
AC50 [22]: 2.25 µM (active)

CCOC(=O)C1=C(C)NC(C)=C(C(=O)OC)[C@H]1c1cccc([N+](=O)[O-])c1 [(R)-NITRENDIPINE]
AC50 (Cytochrome P450 2D6): 10 µM (inconclusive)
AC50 (Cytochrome P450 1A2): 31.6 µM (inconclusive)
